Results from patent US20050182025A1, “Amidinylphenyl compounds and their use as fungicides” (priority 2002, published 2005).

Experiments:
Type in all cases: in vivo
[1] = tested on: Erysiphe graminis f. sp. tritici; assay: Test A: preventive spray on wheat seedlings, wheat powdery mildew, disease rating; conditions: wheat seedlings sprayed to run-off, inoculated the following day with Erysiphe graminis f. sp. tritici, rated after 7 days at 20° C.; test concentration not given
Outline: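 Wheat seedlings sprayed to run-off with compound suspension (200 ppm ≈ 500 g/ha) in acetone/water with surfactant, inoculated next day with Erysiphe graminis f. sp. tritici spores. After 7 days at 20 °C, disease rated 0–100 as % control relative to untreated plants.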

Puccinia recondita = assay: Test B: preventive spray on wheat seedlings, wheat leaf rust, disease rating; conditions: wheat seedlings sprayed to run-off, inoculated the following day with Puccinia recondita, 24 h saturated atmosphere then 6 days at 20° C.; test concentration not given
Outline: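 Compound suspended in acetone/water (50/50) with 250 ppm Trem 014 surfactant, sprayed to run-off on wheat seedlings (200 ppm ≈ 500 g/ha); P. recondita spores inoculated next day. Plants held 24 h saturated at 20° C, then 6 days at 20° C; disease rated as % control relative to untreated (100 = full control).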

Septoria nodorum = assay: Test C: preventive spray on wheat seedlings, Septoria glume blotch, disease rating; conditions: wheat seedlings sprayed to run-off, inoculated the following day with Septoria nodorum, 48 h saturated atmosphere then 9 days at 20° C.; test concentration not given
Outline: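 Wheat seedlings were sprayed to run-off with compound suspensions in acetone/water containing 250 ppm Trem 014 (200 ppm equals 500 g/ha), then inoculated with Septoria nodorum spores next day. Plants were held 48 h saturated at 20° C., then 9 days at 20° C. Disease control was rated 0–100 relative to controls.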

CCN(C)C(=S)Nc1cc(C)c(OCCC[Si](C)(CC)CC)cc1C [compound 79]
Test A disease control rating (100 = 100% disease control, 0 = no disease control relative to the controls) [1]: 0% | Test B disease control rating (100 = 100% disease control, 0 = no disease control relative to the controls) (Puccinia recondita): 99% | Test C disease control rating (100 = 100% disease control, 0 = no disease control relative to the controls) (Septoria nodorum): 100%

C=CCN(C)C(=S)Nc1cc(Cl)c(OCCC[Si](C)(C)C)c(Cl)c1Cl [compound 83]
Test A disease control rating (100 = 100% disease control, 0 = no disease control relative to the controls) [1]: 0% | Test B disease control rating (100 = 100% disease control, 0 = no disease control relative to the controls) (Puccinia recondita): 9% | Test C disease control rating (100 = 100% disease control, 0 = no disease control relative to the controls) (Septoria nodorum): 0%

CCN(C)C(=S)Nc1cc(Cl)c(OCCC[Si](C)(C)CC)cc1C [compound 84]
Test A disease control rating (100 = 100% disease control, 0 = no disease control relative to the controls) [1]: 100% | Test B disease control rating (100 = 100% disease control, 0 = no disease control relative to the controls) (Puccinia recondita): 100% | Test C disease control rating (100 = 100% disease control, 0 = no disease control relative to the controls) (Septoria nodorum): 100%

C=CCN(C)C(=S)Nc1cc(Cl)c(OCCC[Si](C)(C)C)cc1C [compound 85]
Test A disease control rating (100 = 100% disease control, 0 = no disease control relative to the controls) [1]: 100% | Test B disease control rating (100 = 100% disease control, 0 = no disease control relative to the controls) (Puccinia recondita): 99% | Test C disease control rating (100 = 100% disease control, 0 = no disease control relative to the controls) (Septoria nodorum): 100%

C=CCN(C)C(=S)Nc1cc(C)c(OCCC[Si](C)(C)C)cc1C [compound 86]
Test A disease control rating (100 = 100% disease control, 0 = no disease control relative to the controls) [1]: 100% | Test B disease control rating (100 = 100% disease control, 0 = no disease control relative to the controls) (Puccinia recondita): 99% | Test C disease control rating (100 = 100% disease control, 0 = no disease control relative to the controls) (Septoria nodorum): 100%

CCCCN(C)C(=S)Nc1cc(C(C)C)c(OCCC[Si](C)(C)C)cc1C [compound 91]
Test A disease control rating (100 = 100% disease control, 0 = no disease control relative to the controls) [1]: 0% | Test B disease control rating (100 = 100% disease control, 0 = no disease control relative to the controls) (Puccinia recondita): 26% | Test C disease control rating (100 = 100% disease control, 0 = no disease control relative to the controls) (Septoria nodorum): 0%

Cc1cc(OCCC[Si](C)(C)C)c(C(C)C)cc1NC(=S)N(C)C(C)C [compound 92]
Test A disease control rating (100 = 100% disease control, 0 = no disease control relative to the controls) [1]: 100% | Test B disease control rating (100 = 100% disease control, 0 = no disease control relative to the controls) (Puccinia recondita): 100% | Test C disease control rating (100 = 100% disease control, 0 = no disease control relative to the controls) (Septoria nodorum): 100%

CCCN(C)C(=S)Nc1cc(C(C)C)c(OCCC[Si](C)(C)C)cc1C [compound 93]
Test A disease control rating (100 = 100% disease control, 0 = no disease control relative to the controls) [1]: 99% | Test B disease control rating (100 = 100% disease control, 0 = no disease control relative to the controls) (Puccinia recondita): 100% | Test C disease control rating (100 = 100% disease control, 0 = no disease control relative to the controls) (Septoria nodorum): 99%

CCN(C)C(=S)Nc1cc(C(C)C)c(OCCC[Si](C)(C)C)cc1C [compound 94]
Test A disease control rating (100 = 100% disease control, 0 = no disease control relative to the controls) [1]: 99% | Test B disease control rating (100 = 100% disease control, 0 = no disease control relative to the controls) (Puccinia recondita): 100% | Test C disease control rating (100 = 100% disease control, 0 = no disease control relative to the controls) (Septoria nodorum): 100%

CC(=Nc1cc(C)c(OCCCC(C)C)cc1C)N(C)C [compound 96]
Test A disease control rating (100 = 100% disease control, 0 = no disease control relative to the controls) [1]: 0% | Test B disease control rating (100 = 100% disease control, 0 = no disease control relative to the controls) (Puccinia recondita): 100% | Test C disease control rating (100 = 100% disease control, 0 = no disease control relative to the controls) (Septoria nodorum): 100%

CCCC(CCC(C)C)Oc1cc(C)c(N=C(C)N(C)C)cc1C (stereo not drawn) [compound 97]
Test A disease control rating (100 = 100% disease control, 0 = no disease control relative to the controls) [1]: 0% | Test B disease control rating (100 = 100% disease control, 0 = no disease control relative to the controls) (Puccinia recondita): 45% | Test C disease control rating (100 = 100% disease control, 0 = no disease control relative to the controls) (Septoria nodorum): 85%

CC(=Nc1cc(C)c(OCCC(C)CC(C)(C)C)cc1C)N(C)C (stereo not drawn) [compound 98]
Test A disease control rating (100 = 100% disease control, 0 = no disease control relative to the controls) [1]: 0% | Test B disease control rating (100 = 100% disease control, 0 = no disease control relative to the controls) (Puccinia recondita): 60% | Test C disease control rating (100 = 100% disease control, 0 = no disease control relative to the controls) (Septoria nodorum): 94%

CCCCCC(CCCCC)Oc1cc(C)c(N=C(C)N(C)C)cc1C [compound 99]
Test A disease control rating (100 = 100% disease control, 0 = no disease control relative to the controls) [1]: 0% | Test B disease control rating (100 = 100% disease control, 0 = no disease control relative to the controls) (Puccinia recondita): 9% | Test C disease control rating (100 = 100% disease control, 0 = no disease control relative to the controls) (Septoria nodorum): 0%

CCC(CCC(C)C)Oc1cc(C)c(N=C(C)N(C)C)cc1C (stereo not drawn) [compound 100]
Test A disease control rating (100 = 100% disease control, 0 = no disease control relative to the controls) [1]: 0% | Test B disease control rating (100 = 100% disease control, 0 = no disease control relative to the controls) (Puccinia recondita): 86% | Test C disease control rating (100 = 100% disease control, 0 = no disease control relative to the controls) (Septoria nodorum): 76%

CCCC(CCC)Oc1cc(C)c(N=C(C)N(C)C)cc1C [compound 101]
Test A disease control rating (100 = 100% disease control, 0 = no disease control relative to the controls) [1]: 100% | Test B disease control rating (100 = 100% disease control, 0 = no disease control relative to the controls) (Puccinia recondita): 100% | Test C disease control rating (100 = 100% disease control, 0 = no disease control relative to the controls) (Septoria nodorum): 100%

CC(=Nc1cc(C)c(OC(C)CCC(C)C)cc1C)N(C)C (stereo not drawn) [compound 102]
Test A disease control rating (100 = 100% disease control, 0 = no disease control relative to the controls) [1]: 21% | Test B disease control rating (100 = 100% disease control, 0 = no disease control relative to the controls) (Puccinia recondita): 95% | Test C disease control rating (100 = 100% disease control, 0 = no disease control relative to the controls) (Septoria nodorum): 89%

CC(=Nc1cc(C)c(OC(CCC(C)C)CCC(C)C)cc1C)N(C)C [compound 103]
Test A disease control rating (100 = 100% disease control, 0 = no disease control relative to the controls) [1]: 31% | Test B disease control rating (100 = 100% disease control, 0 = no disease control relative to the controls) (Puccinia recondita): 0% | Test C disease control rating (100 = 100% disease control, 0 = no disease control relative to the controls) (Septoria nodorum): 0%

C=C(C)CCC(CC)Oc1cc(C)c(N=C(C)N(C)C)cc1C (stereo not drawn) [compound 104]
Test A disease control rating (100 = 100% disease control, 0 = no disease control relative to the controls) [1]: 0% | Test B disease control rating (100 = 100% disease control, 0 = no disease control relative to the controls) (Puccinia recondita): 23% | Test C disease control rating (100 = 100% disease control, 0 = no disease control relative to the controls) (Septoria nodorum): 0%

Cc1cc(SC(C)CCC(C)C)c(C)cc1N=CN(C)C (stereo not drawn) [compound 105]
Test A disease control rating (100 = 100% disease control, 0 = no disease control relative to the controls) [1]: 97% | Test B disease control rating (100 = 100% disease control, 0 = no disease control relative to the controls) (Puccinia recondita): 100% | Test C disease control rating (100 = 100% disease control, 0 = no disease control relative to the controls) (Septoria nodorum): 98%

CCN(C)C(=S)Nc1cc(C)c(OCCCC(C)C)cc1C [compound 106]
Test A disease control rating (100 = 100% disease control, 0 = no disease control relative to the controls) [1]: 100% | Test B disease control rating (100 = 100% disease control, 0 = no disease control relative to the controls) (Puccinia recondita): 100% | Test C disease control rating (100 = 100% disease control, 0 = no disease control relative to the controls) (Septoria nodorum): 100%

Cc1cc(OCCCC(C)C)c(C)cc1NC(=S)N(C)C [compound 107]
Test A disease control rating (100 = 100% disease control, 0 = no disease control relative to the controls) [1]: 60% | Test B disease control rating (100 = 100% disease control, 0 = no disease control relative to the controls) (Puccinia recondita): 99% | Test C disease control rating (100 = 100% disease control, 0 = no disease control relative to the controls) (Septoria nodorum): 99%

CCN(CC)C(=S)Nc1cc(C)c(OCCCC(C)C)cc1C [compound 108]
Test A disease control rating (100 = 100% disease control, 0 = no disease control relative to the controls) [1]: 87% | Test B disease control rating (100 = 100% disease control, 0 = no disease control relative to the controls) (Puccinia recondita): 89% | Test C disease control rating (100 = 100% disease control, 0 = no disease control relative to the controls) (Septoria nodorum): 96%

CC(=Nc1cc(Cl)c(OCCCC(C)C)cc1C)N(C)C [compound 110]
Test A disease control rating (100 = 100% disease control, 0 = no disease control relative to the controls) [1]: 42% | Test B disease control rating (100 = 100% disease control, 0 = no disease control relative to the controls) (Puccinia recondita): 97% | Test C disease control rating (100 = 100% disease control, 0 = no disease control relative to the controls) (Septoria nodorum): 99%

CC(=Nc1cc(Cl)c(OCCCC(C)C)cc1C)N(C)C [compound 111]
Test A disease control rating (100 = 100% disease control, 0 = no disease control relative to the controls) [1]: 99% | Test B disease control rating (100 = 100% disease control, 0 = no disease control relative to the controls) (Puccinia recondita): 100% | Test C disease control rating (100 = 100% disease control, 0 = no disease control relative to the controls) (Septoria nodorum): 100%

CCN(C)C(=S)Nc1cc(Cl)c(OCCCC(C)C)cc1C [compound 112]
Test A disease control rating (100 = 100% disease control, 0 = no disease control relative to the controls) [1]: 95% | Test B disease control rating (100 = 100% disease control, 0 = no disease control relative to the controls) (Puccinia recondita): 99% | Test C disease control rating (100 = 100% disease control, 0 = no disease control relative to the controls) (Septoria nodorum): 99%

CCN(CC)C(=S)Nc1cc(Cl)c(OCCCC(C)C)cc1C [compound 113]
Test A disease control rating (100 = 100% disease control, 0 = no disease control relative to the controls) [1]: 91% | Test B disease control rating (100 = 100% disease control, 0 = no disease control relative to the controls) (Puccinia recondita): 99% | Test C disease control rating (100 = 100% disease control, 0 = no disease control relative to the controls) (Septoria nodorum): 100%

CCN(C)C(=S)Nc1cc(Cl)c(OCCCC(C)C)cc1C [compound 114]
Test A disease control rating (100 = 100% disease control, 0 = no disease control relative to the controls) [1]: 99% | Test B disease control rating (100 = 100% disease control, 0 = no disease control relative to the controls) (Puccinia recondita): 100% | Test C disease control rating (100 = 100% disease control, 0 = no disease control relative to the controls) (Septoria nodorum): 100%

Cc1c(N=CN(C)C)cc(Cl)c(OCCCC(C)C)c1Cl [compound 115]
Test A disease control rating (100 = 100% disease control, 0 = no disease control relative to the controls) [1]: 85% | Test B disease control rating (100 = 100% disease control, 0 = no disease control relative to the controls) (Puccinia recondita): 85% | Test C disease control rating (100 = 100% disease control, 0 = no disease control relative to the controls) (Septoria nodorum): 100%
